Assay results from patent US10280170B2, “Substituted 4,5,6,7-tetrahydro-pyrazolo[1,5-a]pyrazine derivatives and 5,6,7,8-tetrahydro-4H-pyrazolo[1,5-a][1,4]diazepine derivatives as Ros1 inhibitors” (Janssen Pharmaceutica NV, priority 2014, dated 2019).
Where two headings read alike, the source gives them in different places.

Tests used:
Ros1 enzyme = molecular target: T1, Ros1 enzyme (Homo sapiens, UniProt P08922); assay: Ros1 enzymatic assay; assay type: biochemical; settings: Ros1 enzymatic assay; for IC50: read-out: ROS1 pIC50 (converted)
T1 construct: 0.5 μg/ml Ros1 enzyme
Experimental: Compounds were spotted onto white 384-well Proxiplate plus plates (Perkin Elmer) to which 5 μl of enzyme mix (0.5 μg/ml Ros1 enzyme, 50 mM Tris-HCl pH7.5, 1 mM EGTA, 10 mM MgCl2, 0.01% Tween-20) and 5 μl of substrate mix (6 μg/ml IRS-Tide [American Peptide Company], 20 μM ATP, 13.33 μCi/ml ATP (adenosine 5′-triphosphate) P^33, 50 mM Tris-HCl pH7.5, 1 mM EGTA (ethylene glycol-bis(2-aminoethylether)-N,N,N′,N′-tetraacetic acid), 10 mM MgCl2, 0.01% Tween-20) were added. After incubation for 120 minutes at room temperature, 10 μl of stop reaction buffer (5 mM EDTA, 50 μM ATP, 0.1% BSA (bovine serum albumin), 0.1% Triton X-100, 50 mM Tris-HCl pH7.5, 1 mM EGTA, 10 mM MgCl2, 0.01% Tween-20) containing 2 mg/ml streptavidin coupled polystyrene imaging beads (Amersham Biosciences) was added and incubated for 15 minutes at room temperature. Plates were centrifuged for 3 minutes at 1500 rpm and signals detected in a LEADseeker imaging system (GE).

[1] = molecular target: T2, Ba/F3 cells containing Ros1 wild-type protein (Homo sapiens, UniProt P08922, cells depend on it, form not given); assay: Ba/F3-Ros1 cell proliferation assay, wild-type Ros1; assay type: cell-based, murine; settings: without IL-3
T2 construct: The background only speaks of 'a number of different unrelated proteins' and names SLC34A2-ROS1 for HCC78 cells
Experimental: (§1) Ba/F3-Ros1 Cell Proliferation Assay
(§2) This assay was carried out with Ba/F3 cells containing three different versions of Ros1: the wild-type protein, protein with a mutation at the gatekeeper residue (L2026M), and protein with a mutation identified in a tumor from a patient that became resistant to crizotinib (Xalkori®) treatment (G2032R). Compounds were solubilized in 100% DMSO (dimethyl sulfoxide) and sprayed into polystyrene, tissue culture treated 384-well plates. A 50 μl volume of cell culture medium (phenol red free RPMI-1640, 10% FBS (fetal bovine serum), 2 mM L-Glutamine) containing 20000 Ba/F3-Ros1 cells was added to each well and the plates were placed in an incubator at 37° C. and 5% CO2. After 24 hours, 10 μl of Alamar Blue solution (0.5 mM K3Fe(CN)6, 0.5 mM K4Fe(CN)6, 0.15 mM Resazurin and 100 mM Phosphate Buffer) was added to the wells, incubated for 4 hours at 37° C. and 5% CO2 before RFU's (Relative Fluorescence Units) (ex. 540 nm., em. 590 nm.) were measured in a fluorescence plate reader.

[2] = system: Ba/F3 cells containing Ros1 wild-type protein + IL-3; assay: Ba/F3-Ros1 cell proliferation counter-screen, wild-type protein in the presence of 10 ng/ml murine IL-3; assay type: cell-based; settings: Mus musculus, BaF3, 24 h, read-out: BaF3-ROS1 + IL3 pIC50 (converted)
Experimental: as §2
As a counter-screen the same experiment was performed for the wild-type protein in the presence of 10 ng/ml murine IL-3.

[3] = molecular target: Ba/F3 cells containing Ros1 with a mutation at the gatekeeper residue (L2026M) (Homo sapiens, UniProt P08922, L2026M, cells depend on it, form not given); assay: Ba/F3-Ros1 cell proliferation assay, L2026M gatekeeper mutant; assay type: cell-based, murine; settings: without IL-3
Experimental: as §1, §2

[4] = counter-screen, wild-type, 10 ng/ml murine IL-3

T2 sequence (P08922 whole entry, stated change not applied): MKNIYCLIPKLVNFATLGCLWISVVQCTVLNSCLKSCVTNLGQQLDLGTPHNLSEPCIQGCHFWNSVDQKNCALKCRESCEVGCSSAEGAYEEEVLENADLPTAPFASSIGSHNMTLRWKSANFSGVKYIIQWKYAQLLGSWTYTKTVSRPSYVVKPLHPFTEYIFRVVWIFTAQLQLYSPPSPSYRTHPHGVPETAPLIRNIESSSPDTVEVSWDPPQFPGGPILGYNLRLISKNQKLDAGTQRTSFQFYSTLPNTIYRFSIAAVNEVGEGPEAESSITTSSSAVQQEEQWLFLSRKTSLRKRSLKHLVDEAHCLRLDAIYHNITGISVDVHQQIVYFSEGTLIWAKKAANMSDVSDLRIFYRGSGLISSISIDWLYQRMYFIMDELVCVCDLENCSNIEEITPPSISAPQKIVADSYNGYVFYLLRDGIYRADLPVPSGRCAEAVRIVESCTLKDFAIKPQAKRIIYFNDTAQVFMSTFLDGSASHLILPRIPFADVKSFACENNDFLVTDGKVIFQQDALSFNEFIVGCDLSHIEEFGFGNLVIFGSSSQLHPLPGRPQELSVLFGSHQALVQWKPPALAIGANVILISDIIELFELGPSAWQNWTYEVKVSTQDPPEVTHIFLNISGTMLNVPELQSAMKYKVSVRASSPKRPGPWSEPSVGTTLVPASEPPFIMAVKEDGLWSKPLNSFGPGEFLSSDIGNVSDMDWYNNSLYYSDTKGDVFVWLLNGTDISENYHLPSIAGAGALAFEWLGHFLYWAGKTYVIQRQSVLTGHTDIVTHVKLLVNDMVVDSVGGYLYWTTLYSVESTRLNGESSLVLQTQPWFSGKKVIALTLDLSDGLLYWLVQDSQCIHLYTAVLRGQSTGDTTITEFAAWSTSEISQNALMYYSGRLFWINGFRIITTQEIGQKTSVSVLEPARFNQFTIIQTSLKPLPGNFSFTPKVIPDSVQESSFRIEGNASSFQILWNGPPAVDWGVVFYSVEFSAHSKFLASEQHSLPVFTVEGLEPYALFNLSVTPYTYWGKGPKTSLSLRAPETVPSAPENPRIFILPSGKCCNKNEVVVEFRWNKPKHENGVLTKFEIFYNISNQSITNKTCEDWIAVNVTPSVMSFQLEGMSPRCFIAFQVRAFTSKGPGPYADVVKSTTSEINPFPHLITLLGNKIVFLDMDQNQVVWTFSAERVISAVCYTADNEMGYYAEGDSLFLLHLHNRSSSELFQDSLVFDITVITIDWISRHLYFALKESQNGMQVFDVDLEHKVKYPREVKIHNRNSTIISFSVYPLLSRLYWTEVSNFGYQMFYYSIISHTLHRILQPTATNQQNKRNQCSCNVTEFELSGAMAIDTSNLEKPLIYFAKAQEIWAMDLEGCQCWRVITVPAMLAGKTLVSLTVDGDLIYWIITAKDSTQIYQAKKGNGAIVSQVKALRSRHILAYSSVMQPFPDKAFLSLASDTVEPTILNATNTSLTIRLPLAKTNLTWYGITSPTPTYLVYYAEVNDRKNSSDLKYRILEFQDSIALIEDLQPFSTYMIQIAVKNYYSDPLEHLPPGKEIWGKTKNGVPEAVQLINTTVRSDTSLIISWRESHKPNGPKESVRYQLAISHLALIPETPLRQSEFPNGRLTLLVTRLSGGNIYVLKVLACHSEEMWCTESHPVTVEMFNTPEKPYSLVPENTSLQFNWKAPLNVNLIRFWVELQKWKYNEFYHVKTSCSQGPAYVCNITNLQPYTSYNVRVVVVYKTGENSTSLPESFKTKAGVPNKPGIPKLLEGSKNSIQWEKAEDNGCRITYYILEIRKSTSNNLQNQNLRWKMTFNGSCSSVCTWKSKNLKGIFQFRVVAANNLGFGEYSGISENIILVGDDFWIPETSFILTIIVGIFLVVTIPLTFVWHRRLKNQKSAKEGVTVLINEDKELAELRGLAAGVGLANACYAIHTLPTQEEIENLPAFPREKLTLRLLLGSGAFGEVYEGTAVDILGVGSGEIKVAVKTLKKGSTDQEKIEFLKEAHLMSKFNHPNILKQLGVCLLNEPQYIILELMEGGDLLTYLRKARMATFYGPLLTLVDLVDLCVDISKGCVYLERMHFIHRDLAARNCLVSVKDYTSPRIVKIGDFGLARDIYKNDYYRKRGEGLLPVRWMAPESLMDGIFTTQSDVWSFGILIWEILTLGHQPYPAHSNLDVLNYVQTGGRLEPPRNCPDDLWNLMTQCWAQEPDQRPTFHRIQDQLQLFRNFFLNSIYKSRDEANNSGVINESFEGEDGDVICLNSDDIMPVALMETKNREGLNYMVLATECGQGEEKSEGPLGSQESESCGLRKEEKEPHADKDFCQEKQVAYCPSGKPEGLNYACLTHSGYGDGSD
T1 sequence (P08922 28-2347): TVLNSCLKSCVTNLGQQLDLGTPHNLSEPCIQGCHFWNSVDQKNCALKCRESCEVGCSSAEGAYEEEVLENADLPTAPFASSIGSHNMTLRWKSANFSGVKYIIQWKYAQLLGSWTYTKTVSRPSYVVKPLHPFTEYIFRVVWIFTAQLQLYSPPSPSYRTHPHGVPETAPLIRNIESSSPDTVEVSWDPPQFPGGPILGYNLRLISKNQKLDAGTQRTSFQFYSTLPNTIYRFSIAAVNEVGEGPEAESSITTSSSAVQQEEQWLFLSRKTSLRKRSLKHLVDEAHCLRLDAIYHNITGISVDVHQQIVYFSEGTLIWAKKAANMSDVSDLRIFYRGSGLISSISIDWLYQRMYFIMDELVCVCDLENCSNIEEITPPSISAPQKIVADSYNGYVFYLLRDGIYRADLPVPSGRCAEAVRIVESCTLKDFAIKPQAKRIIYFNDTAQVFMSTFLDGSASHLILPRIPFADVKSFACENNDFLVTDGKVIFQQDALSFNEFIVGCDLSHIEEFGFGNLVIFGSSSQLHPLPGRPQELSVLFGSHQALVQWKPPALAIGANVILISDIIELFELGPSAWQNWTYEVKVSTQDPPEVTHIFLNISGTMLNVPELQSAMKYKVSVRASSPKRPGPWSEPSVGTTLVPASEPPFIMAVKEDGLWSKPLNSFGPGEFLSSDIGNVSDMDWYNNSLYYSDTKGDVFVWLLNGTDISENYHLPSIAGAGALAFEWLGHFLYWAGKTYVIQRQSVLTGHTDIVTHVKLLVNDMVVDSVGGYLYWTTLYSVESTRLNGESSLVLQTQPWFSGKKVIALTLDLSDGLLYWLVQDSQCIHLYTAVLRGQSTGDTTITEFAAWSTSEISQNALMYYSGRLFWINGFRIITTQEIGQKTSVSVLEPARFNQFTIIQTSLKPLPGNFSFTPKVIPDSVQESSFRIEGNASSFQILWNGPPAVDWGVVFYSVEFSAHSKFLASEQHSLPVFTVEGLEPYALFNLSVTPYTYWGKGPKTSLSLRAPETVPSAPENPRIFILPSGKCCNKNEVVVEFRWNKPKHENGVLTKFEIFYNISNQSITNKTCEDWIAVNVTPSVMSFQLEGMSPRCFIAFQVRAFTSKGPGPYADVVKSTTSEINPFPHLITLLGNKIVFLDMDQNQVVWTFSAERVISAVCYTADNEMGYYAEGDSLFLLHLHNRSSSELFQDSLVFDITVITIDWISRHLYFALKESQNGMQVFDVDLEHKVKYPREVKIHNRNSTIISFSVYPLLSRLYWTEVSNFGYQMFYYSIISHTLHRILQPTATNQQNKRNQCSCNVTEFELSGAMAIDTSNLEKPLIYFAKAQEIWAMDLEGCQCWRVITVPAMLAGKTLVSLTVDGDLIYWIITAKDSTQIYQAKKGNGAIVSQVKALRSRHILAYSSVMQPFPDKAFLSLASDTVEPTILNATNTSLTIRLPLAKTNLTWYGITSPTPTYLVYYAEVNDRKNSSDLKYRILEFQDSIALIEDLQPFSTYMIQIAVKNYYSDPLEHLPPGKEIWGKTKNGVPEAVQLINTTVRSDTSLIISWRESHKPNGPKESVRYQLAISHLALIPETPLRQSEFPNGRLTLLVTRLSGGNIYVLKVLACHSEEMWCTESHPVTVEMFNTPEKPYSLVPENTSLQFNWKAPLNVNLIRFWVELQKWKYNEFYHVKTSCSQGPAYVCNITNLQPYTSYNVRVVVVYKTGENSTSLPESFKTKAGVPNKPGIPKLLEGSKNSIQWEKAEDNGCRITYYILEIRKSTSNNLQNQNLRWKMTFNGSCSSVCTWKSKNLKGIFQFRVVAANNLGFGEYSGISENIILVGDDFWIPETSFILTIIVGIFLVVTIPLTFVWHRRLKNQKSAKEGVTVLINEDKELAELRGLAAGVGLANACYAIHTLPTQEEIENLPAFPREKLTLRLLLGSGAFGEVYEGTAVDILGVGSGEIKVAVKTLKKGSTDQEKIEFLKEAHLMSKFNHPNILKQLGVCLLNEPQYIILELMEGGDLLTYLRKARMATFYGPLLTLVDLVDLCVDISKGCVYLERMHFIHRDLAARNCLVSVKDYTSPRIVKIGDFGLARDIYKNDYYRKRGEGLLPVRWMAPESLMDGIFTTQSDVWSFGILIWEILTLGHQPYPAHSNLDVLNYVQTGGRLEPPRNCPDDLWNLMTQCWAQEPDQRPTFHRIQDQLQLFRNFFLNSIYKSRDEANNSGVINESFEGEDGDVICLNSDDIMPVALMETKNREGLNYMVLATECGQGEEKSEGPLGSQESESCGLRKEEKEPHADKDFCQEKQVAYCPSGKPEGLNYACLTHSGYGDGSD
Sequence of Ba/F3 cells containing Ros1 with a mutation at the gatekeeper residue (L2026M) (P08922 whole entry L2026M, form open): as the sequence (P08922 whole entry, stated change not applied) above, with L2026M counted along it

ROS1 pIC50 (Ros1 enzyme)	Compound	IC50 (Ros1 enzyme) [µM]	BaF3-ROS1-IL3 pIC50 [1]	melting point [°C]	CC50 [2] [µM]	CC50 [2, 4] [µM]	Ba/F3 Ros1 L2026M (-IL-3) pIC50 [3]
	CC(C)c1ccc(C2CNc3cc(-c4c(-c5ccncc5)nn5c4C(=O)NCC5)ccc3O2)cc1 (centres unmarked) [Compound 225]	0.316	6.7				
	COc1cc(OCc2ccc(C(C)C)cc2)ccc1-c1c(-c2ccncc2)nn2c1C(=O)NCC2 [Compound 34]	0.316	6.6	276	> 10		
	CC(C)c1ccc(COc2ccc(-c3c(-c4ccncn4)nn4c3CNCC4)cc2)cc1 [Compound 219]	1.26	6.0	150		> 10	
	CC(C)Oc1ccc(COc2ccc(-c3c(-c4ccncc4)nn4c3C(=O)NCC4)cc2)cc1 [Compound 114]	0.501	6.4	252	> 10		
	COc1cc(COc2ccc(-c3c(-c4ccncc4)nn4c3C(=O)NCC4)cc2)ccc1C(C)C [Compound 80]	0.126	6.9	232	> 10		
	O=C1NCCn2nc(-c3ccncc3)c(-c3ccc(OCc4cccc(C(F)(F)F)c4)cc3)c21 [Compound 120]	0.251	6.6	293	> 10		
	NCc1cccc(COc2ccc(-c3c(-c4ccncc4)nn4c3C(=O)NCC4)cc2)c1 [Compound 133]	> 10	5.6			> 10	
	COC(=O)c1cccc(COc2ccc(-c3c(-c4ccncc4)nn4c3C(=O)NCC4)cc2)c1 [Compound 131]	0.631	6.2	222	> 10		
	N#Cc1cccc(COc2ccc(-c3c(-c4ccncc4)nn4c3C(=O)NCC4)cc2)c1 [Compound 124]	2	5.7	238	> 10		
	CC(C)c1ccc(COc2ccc(-c3c(-c4ccncc4)nn4c3CN(CCN)CC4)cc2)cc1 [Compound 210]	0.0631	6.3	197		6.31	
	CC(C)Oc1cc(-c2c(-c3ccncc3)nn3c2C(=O)NCC3)ccc1OCc1ccc(C(C)C)cc1 [Compound 37]	2.51	5.4	206	> 10		
	CC(C)(CO)c1ccc(COc2ccc(-c3c(-c4ccncc4)nn4c3C(=O)NCC4)cc2)cc1 [Compound 125]	0.316	6.7	280	> 10		
	COC(=O)c1ccc(COc2ccc(-c3c(-c4ccncc4)nn4c3C(=O)NCC4)cc2)cc1 [Compound 9a]	2.51	<5	254		> 10	
	CC(C)c1ccc(COc2ccc(-c3c(-c4ccncn4)nn4c3CN(CCO)CC4)cc2)cc1 [Compound 220]	0.501	6.5			> 10	
	CC(C)c1ccc(COc2ccc(-c3c(-c4ccncc4)nn4c3C(=O)N(CC(=O)O)CC4)cc2)cc1 [Compound 66]	0.251	5.1		> 10		
	O=C1NCCn2nc(-c3ccncc3)c(-c3ccc(OCc4ccc(OC(F)F)cc4)cc3)c21 [Compound 118]	0.158	7.1	250	> 10		
7.2	CC(C)c1ccc(COc2ccc(-c3c(-c4ccncc4)nn4c3C(=O)N(CCN)CC4)cc2)cc1 [Compound 59a]		6.6				
	CC(O)C(=O)N1CCn2nc(-c3ccncc3)c(-c3ccc(OCc4ccc(C(C)C)cc4)cc3)c2C1 (centres unmarked) [Compound 180]	0.501	6.5			> 10	
	O=C1NCCn2nc(-c3ccncc3)c(-c3ccc(OCc4ccccc4)cc3)c21 [Compound 130]	3.16	5.8	260	> 10		

ROS1 pIC50 (Ros1 enzyme)	Compound	IC50 (Ros1 enzyme) [µM]	BaF3-ROS1-IL3 pIC50 [1]	melting point [°C]	CC50 [2] [µM]	CC50 [2, 4] [µM]	Ba/F3 Ros1 L2026M (-IL-3) pIC50 [3]
	N#Cc1ccc(COc2ccc(-c3c(-c4ccncc4)nn4c3C(=O)NCC4)cc2)cc1Cl [Compound 141]	0.631	6.4	257	> 10		
	N#Cc1ncc(COc2ccc(-c3c(-c4ccncc4)nn4c3C(=O)NCC4)cc2)cc1Cl [Compound 230]	> 10	5.2	277		> 10	
	CC(C)Cc1ccc(COc2ccc(-c3c(-c4ccncc4)nn4c3C(=O)NCC4)cc2)cc1 [Compound 108]	0.126	7.0	233	> 10		
	CC(C)c1ccc(COc2ccc(-c3c(-c4cc[n+]([O-])cc4)nn4c3C(=O)NCC4)cc2)cc1 [Compound 170]	6.31	5.2	227		> 10	
	CC(C)c1ccc(COc2ccc(-c3c(-c4ccncc4)nn4c3C(=O)N(CCC#N)CC4)cc2)cc1 [Compound 57]	0.0251	7.7	158	> 10		
	CC(C)c1ccc(COc2ccc(-c3c(-c4ccncc4)nn4c3C(=O)N(C)CC4)cc2)cc1CCO [Compound 82]	0.01	7.6		> 10		7.3
	CC(C)c1ccc(COc2ccc(-c3c(-c4ccncc4)nn4c3CN(CC(=O)N3CCCC3)CC4)cc2)cc1 [Compound 179]	0.501	6.4			> 10	
	CC1CNCc2c(-c3ccc(OCc4ccc(C5CC5)cc4)cc3)c(-c3ccncc3)nn21 (centres unmarked) [Compound 197]	0.794	5.8	153		> 10	
	CC(C)c1ccc(COC2CCN(c3c(-c4ccncc4)nn4c3C(=O)NCC4)CC2)cc1 [Compound 198]	0.251	6.6		> 10		
	CC(C)c1ccc(COc2ccc(-c3c(-c4ccncc4)nn4c3C(=O)NCC4)c(F)c2)cc1CCO [Compound 204]	0.00631	7.9		> 10		7.8
	CC(C)c1ccc(C2CNc3cc(-c4c(-c5ccncc5)nn5c4C(=O)NCC5)ccc3O2)cc1 (centres unmarked) [Compound 224]	0.398	6.7			> 10	
	CNCC(=O)N1CCn2nc(-c3ccncc3)c(-c3ccc(OCc4ccc(C(C)C)cc4)cc3)c2C1 [Compound 182]	1.26	5.7			5.01	
	CC(C)c1ccc(C2CNc3cc(-c4c(-c5ccncc5)nn5c4C(=O)NCC5)cnc3O2)cc1 (centres unmarked) [Compound 223]	0.398	6.5		> 10		
	COc1ccc(COc2ccc(-c3c(-c4ccncc4)nn4c3CNCC4)cc2)cc1 [Compound 188]	3.98	5.5			> 10	
	CC(C)c1ccc(COc2ccc(-c3c(-c4ccnc(N)n4)nn4c3C(=O)NCC4)cc2)cc1 [Compound 13]	0.02	7.5		> 10		
	CC(C)c1ccc(COc2ccc(-c3c(-c4ccncc4)nn4c3C(=O)N(CCO)CC4)cn2)cc1 [Compound 212]	0.0398	7.3		> 10		6.8
	CC(C)c1ccc(C(Oc2ccc(-c3c(-c4ccncc4)nn4c3C(=O)NCC4)cc2)C(=O)NCCO)cc1 (centres unmarked) [Compound 218]	0.2	6.3		> 10		
	CC1Cn2nc(-c3ccncc3)c(-c3ccc(OCc4ccc(C5CC5)cc4)cc3)c2CN1 (centres unmarked) [Compound 190]	0.631	6.1			> 10	
